How the values were obtained:
Type in all cases: in vivo
Megathyrsus maximus = assay: Control of Megathyrsus maximus weed at different application rates (Example 5)
From the text: The effect of application of asulam was observed on the growth of Megathyrsus maximus weed at 14 and 21 DAA (days after application) at different application rates. The percentage (%) control of weeds has been evaluated and disclosed in Table 5.

Raphanus raphanistrum [1] = assay: Control of Raphanus raphanistrum weed by asulam alone, with adjuvant, with additional herbicide (Example 2); details: 4500 g a.i/ha
Experimental: The effect of application of asulam alone, asulam along with an adjuvant, and asulam along with an additional herbicide was observed on the growth of Raphanus raphanistrum weed at 42, 49, 56 and 63 DAA (days after application). The percentage (%) control of weeds was evaluated to assess the efficacy of the compositions and the same has been disclosed in Table 2. Untreated control was also compared, wherein no herbicidal composition was applied and thus, no control of weeds was observed.

Ipomoea hederifolia [2] = assay: Control of Ipomoea hederifolia weed by asulam alone, with adjuvant, with additional herbicide (Example 1); details: 4500 g a.i/ha
Experimental: The effect of application of asulam alone, asulam along with an adjuvant, and asulam along with an additional herbicide was observed on the growth of Ipomoea hederifolia weed at 42, 49, 56 and 63 DAA (days after application). The percentage (%) control of weeds was evaluated to assess the efficacy of the compositions and the same has been disclosed in Table 1. Untreated control was also compared, wherein no herbicidal composition was applied and thus, no control of weeds was observed.

Avena strigose [3] = assay: Control of Avena strigose weed at different application rates (Example 8)
From the text: The effect of application of asulam was observed on the growth of Avena strigose weed at 28, 35 and 49 DAA (days after application) at different application rates. The percentage (%) control of weeds has been evaluated and disclosed in Table 8.

Raphanus raphanistrum [4] = assay: Control of Raphanus raphanistrum weed at different application rates (Example 7)
From the text: The effect of application of asulam was observed on the growth of Raphanus raphanistrum weed at 14, 21 and 28 DAA (days after application) at different application rates. The percentage (%) control of weeds has been evaluated and disclosed in Table 7.

Digitaria nuda = assay: Control of weeds at post-emergence stage (Example 10)
From the text: (§1) The effect of application of asulam was observed on the growth of weeds at post-emergence stage for different application rates. The percentage (%) control of weeds has been evaluated and disclosed in Table 10.

Cynodon dactylon = assay: as above
From the text: as §1

Bidens pilosa = assay: as above
From the text: as §1

Brachiaria plantaginea = assay: as above
From the text: as §1

Ipomoea hederifolia [5] = assay: Control of Ipomoea hederifolia weed at different application rates (Example 6)
From the text: The effect of application of asulam was observed on the growth of Ipomoea hederifolia weed at 21, 28 and 35 DAA (days after application) at different application rates. The percentage (%) control of weeds has been evaluated and disclosed in Table 6.

Avena strigose [6] = assay: Control of Avena strigose weed by asulam alone, with adjuvant, with additional herbicide (Example 3); details: 4500 g a.i/ha
Experimental: The effect of application of asulam alone, asulam along with an adjuvant, and asulam along with an additional herbicide was observed on the growth of Avena strigose weed at 42, 49, 56 and 63 DAA (days after application). The percentage (%) control of weeds was evaluated to assess the efficacy of the compositions and the same has been disclosed in Table 3. Untreated control was also compared, wherein no herbicidal composition was applied and thus, no control of weeds was observed.

COC(=O)NS(=O)(=O)c1ccc(N)cc1 [Asulam, asulam]
Control of Megathyrsus maximus (Megathyrsus maximus; 3200 g a.i/ha, 14 DAA): 79% | Control of Megathyrsus maximus (Megathyrsus maximus; 3200 g a.i/ha, 21 DAA): 85% | Control of Megathyrsus maximus (Megathyrsus maximus; 3600 g a.i/ha, 14 DAA): 80% | Control of Megathyrsus maximus (Megathyrsus maximus; 3600 g a.i/ha, 21 DAA): 86% | Control of Megathyrsus maximus (Megathyrsus maximus; 4000 g a.i/ha, 14 DAA): 76% | Control of Megathyrsus maximus (Megathyrsus maximus; 4000 g a.i/ha, 21 DAA): 85% | Control of Raphanus raphanistrum (Raphanus raphanistrum [1]; 42 DAA): 71.3% | Control of Raphanus raphanistrum (Raphanus raphanistrum [1]; 49 DAA): 68.8% | Control of Raphanus raphanistrum (Raphanus raphanistrum [1]; 56 DAA): 66.3% | Control of Ipomoea hederifolia (Ipomoea hederifolia [2]; 42 DAA): 13.8% | Control of Ipomoea hederifolia (Ipomoea hederifolia [2]; 49 DAA): 11.3% | Control of Ipomoea hederifolia (Ipomoea hederifolia [2]; 56 DAA): 8.8% | Control of Avena strigose (Avena strigose [3]; 1200 g a.i/ha, 28 DAA): 81% | Control of Avena strigose (Avena strigose [3]; 1200 g a.i/ha, 35 DAA): 84% | Control of Avena strigose (Avena strigose [3]; 1200 g a.i/ha, 49 DAA): 81% | Control of Avena strigose (Avena strigose [3]; 1500 g a.i/ha, 28 DAA): 86% | Control of Avena strigose (Avena strigose [3]; 1500 g a.i/ha, 35 DAA): 89% | Control of Avena strigose (Avena strigose [3]; 1500 g a.i/ha, 49 DAA): 89% | Control of Avena strigose (Avena strigose [3]; 1800 g a.i/ha, 28 DAA): 96% | Control of Avena strigose (Avena strigose [3]; 1800 g a.i/ha, 35 DAA): 99% | Control of Avena strigose (Avena strigose [3]; 1800 g a.i/ha, 49 DAA): 99% | Control of Avena strigose (Avena strigose [3]; 2250 g a.i/ha, 28 DAA): 95% | Control of Avena strigose (Avena strigose [3]; 2250 g a.i/ha, 35 DAA): 100% | Control of Avena strigose (Avena strigose [3]; 2250 g a.i/ha, 49 DAA): 100% | Control of Avena strigose (Avena strigose [3]; 2500 g a.i/ha, 28 DAA): 98% | Control of Avena strigose (Avena strigose [3]; 2500 g a.i/ha, 35 DAA): 100% | Control of Avena strigose (Avena strigose [3]; 2500 g a.i/ha, 49 DAA): 100% | Control of Raphanus raphanistrum (Raphanus raphanistrum [4]; 1800 g a.i/ha, 14 DAA): 61% | Control of Raphanus raphanistrum (Raphanus raphanistrum [4]; 1800 g a.i/ha, 21 DAA): 69% | Control of Raphanus raphanistrum (Raphanus raphanistrum [4]; 1800 g a.i/ha, 28 DAA): 82% | Control of Raphanus raphanistrum (Raphanus raphanistrum [4]; 2250 g a.i/ha, 14 DAA): 63% | Control of Raphanus raphanistrum (Raphanus raphanistrum [4]; 2250 g a.i/ha, 21 DAA): 73% | Control of Raphanus raphanistrum (Raphanus raphanistrum [4]; 2250 g a.i/ha, 28 DAA): 84% | Control of Raphanus raphanistrum (Raphanus raphanistrum [4]; 2500 g a.i/ha, 14 DAA): 66% | Control of Raphanus raphanistrum (Raphanus raphanistrum [4]; 2500 g a.i/ha, 21 DAA): 77% | Control of Raphanus raphanistrum (Raphanus raphanistrum [4]; 2500 g a.i/ha, 28 DAA): 88% | percentage (%) control of weeds (Digitaria nuda; 2800 g a.i/ha, 28 DAA): 99% | percentage (%) control of weeds (Digitaria nuda; 2800 g a.i/ha, 35 DAA): 99% | percentage (%) control of weeds (Digitaria nuda; 2800 g a.i/ha, 49 DAA): 99% | percentage (%) control of weeds (Digitaria nuda; 3200 g a.i/ha, 28 DAA): 96% | percentage (%) control of weeds (Digitaria nuda; 3200 g a.i/ha, 35 DAA): 100% | percentage (%) control of weeds (Digitaria nuda; 3200 g a.i/ha, 49 DAA): 100% | percentage (%) control of weeds (Digitaria nuda; 4000 g a.i/ha, 28 DAA): 93% | percentage (%) control of weeds (Digitaria nuda; 4000 g a.i/ha, 35 DAA): 94% | percentage (%) control of weeds (Digitaria nuda; 4000 g a.i/ha, 49 DAA): 94% | percentage (%) control of weeds (Cynodon dactylon; 2400 g a.i/ha, 28 DAA): 94% | percentage (%) control of weeds (Cynodon dactylon; 2400 g a.i/ha, 35 DAA): 97% | percentage (%) control of weeds (Cynodon dactylon; 2400 g a.i/ha, 49 DAA): 99% | percentage (%) control of weeds (Cynodon dactylon; 2800 g a.i/ha, 28 DAA): 96% | percentage (%) control of weeds (Cynodon dactylon; 2800 g a.i/ha, 35 DAA): 97% | percentage (%) control of weeds (Cynodon dactylon; 2800 g a.i/ha, 49 DAA): 100% | percentage (%) control of weeds (Cynodon dactylon; 3200 g a.i/ha, 28 DAA): 94% | percentage (%) control of weeds (Cynodon dactylon; 3200 g a.i/ha, 35 DAA): 94% | percentage (%) control of weeds (Cynodon dactylon; 3200 g a.i/ha, 49 DAA): 96% | percentage (%) control of weeds (Cynodon dactylon; 4000 g a.i/ha, 28 DAA): 95% | percentage (%) control of weeds (Cynodon dactylon; 4000 g a.i/ha, 35 DAA): 96% | percentage (%) control of weeds (Cynodon dactylon; 4000 g a.i/ha, 49 DAA): 100% | percentage (%) control of weeds (Bidens pilosa; 1000 g a.i/ha, 28 DAA): 100% | percentage (%) control of weeds (Bidens pilosa; 1000 g a.i/ha, 35 DAA): 100% | percentage (%) control of weeds (Bidens pilosa; 1000 g a.i/ha, 49 DAA): 100% | percentage (%) control of weeds (Bidens pilosa; 1500 g a.i/ha, 28 DAA): 100% | percentage (%) control of weeds (Bidens pilosa; 1500 g a.i/ha, 35 DAA): 100% | percentage (%) control of weeds (Bidens pilosa; 1500 g a.i/ha, 49 DAA): 100% | percentage (%) control of weeds (Bidens pilosa; 1800 g a.i/ha, 28 DAA): 94% | percentage (%) control of weeds (Bidens pilosa; 1800 g a.i/ha, 35 DAA): 97% | percentage (%) control of weeds (Bidens pilosa; 1800 g a.i/ha, 49 DAA): 97% | percentage (%) control of weeds (Bidens pilosa; 2250 g a.i/ha, 28 DAA): 93% | percentage (%) control of weeds (Bidens pilosa; 2250 g a.i/ha, 35 DAA): 95% | percentage (%) control of weeds (Bidens pilosa; 2250 g a.i/ha, 49 DAA): 94% | percentage (%) control of weeds (Brachiaria plantaginea; 1800 g a.i/ha, 28 DAA): 92% | percentage (%) control of weeds (Brachiaria plantaginea; 1800 g a.i/ha, 35 DAA): 92% | percentage (%) control of weeds (Brachiaria plantaginea; 1800 g a.i/ha, 49 DAA): 83% | percentage (%) control of weeds (Brachiaria plantaginea; 2250 g a.i/ha, 28 DAA): 95% | percentage (%) control of weeds (Brachiaria plantaginea; 2250 g a.i/ha, 35 DAA): 88% | percentage (%) control of weeds (Brachiaria plantaginea; 2250 g a.i/ha, 49 DAA): 73% | percentage (%) control of weeds (Brachiaria plantaginea; 2500 g a.i/ha, 28 DAA): 93% | percentage (%) control of weeds (Brachiaria plantaginea; 2500 g a.i/ha, 35 DAA): 92% | percentage (%) control of weeds (Brachiaria plantaginea; 2500 g a.i/ha, 49 DAA): 100% | Control of Ipomoea hederifolia (Ipomoea hederifolia [5]; 1800 g a.i/ha, 21 DAA): 63% | Control of Ipomoea hederifolia (Ipomoea hederifolia [5]; 1800 g a.i/ha, 28 DAA): 77% | Control of Ipomoea hederifolia (Ipomoea hederifolia [5]; 1800 g a.i/ha, 35 DAA): 76% | Control of Ipomoea hederifolia (Ipomoea hederifolia [5]; 2250 g a.i/ha, 21 DAA): 71% | Control of Ipomoea hederifolia (Ipomoea hederifolia [5]; 2250 g a.i/ha, 28 DAA): 83% | Control of Ipomoea hederifolia (Ipomoea hederifolia [5]; 2250 g a.i/ha, 35 DAA): 85% | Control of Ipomoea hederifolia (Ipomoea hederifolia [5]; 2500 g a.i/ha, 21 DAA): 70% | Control of Ipomoea hederifolia (Ipomoea hederifolia [5]; 2500 g a.i/ha, 28 DAA): 84% | Control of Ipomoea hederifolia (Ipomoea hederifolia [5]; 2500 g a.i/ha, 35 DAA): 88% | Control of Avena strigose (Avena strigose [6]; 42 DAA): 47.5% | Control of Avena strigose (Avena strigose [6]; 49 DAA): 43.8% | Control of Avena strigose (Avena strigose [6]; 56 DAA): 37.5%

— patent US20260248134A1, “A METHOD FOR CONTROLLING WEEDS” (UPL MAURITIUS LIMITED, priority 2023, published 2026)
